Assay results reported in publication PMC5190074, “BET inhibition as a new strategy for the treatment of gastric cancer” (Oncotarget, 2016).

Key:
BRDT(1) = target: T1, BRDT(1) (Homo sapiens, UniProt Q58F21); assay: biochemical; parameters: thermal shift assay (real-time PCR machine), melting temperature shift of recombinant bromodomains at 2 uM protein
T1 construct: bromodomain 1
Description: (§1) The recombinant bromodomains at 2 μM were mixed with 10 μM inhibitors. The assays and data evaluation for melting temperatures were performed using a Real-Time PCR Mx3005p machine (Stratagene) and the protocols previously described. Experiments profiling the final compound (PNZ5) were performed in quadruplicates. […] Since its discovery in our own labs, similar inhibitors have also been disclosed by researchers at Boehringer Ingelheim [reference: patent, WO 2014/154760 [31]]. The inhibitor contains two possible acetyl-lysine mimetic moieties. In order to obtain molecular insights on the interaction of the developed inhibitor, the crystal structure of the first bromodomain of BRD4 in complex with PNZ5 was solved at 1.85 Å (Figure 2C and Supplementary Table 4, 5FBX.pdb). The inhibitor, coordinating residues and water molecules were well defined by the electron density. The dimethylisoxazole moiety mimicked the acetyl lysine side chain and formed two canonical hydrogen-bond interactions with Asn140 and water mediated hydrogen-bond with Tyr 97 (Figure 2C). The common network of waters within the binding site was also conserved in the BRD4(1)-PNZ5 complex. The compound was further stabilized by lipophilic interactions with residues forming the binding site Leu92, Leu94, Ile146. The [compound left out] substituent was well accommodated next to the WPF shelf, as well as the N1-methyl substituent that formed hydrophobic interactions with Trp81. The carbonyl on the isoindolinone established a water-mediated hydrogen bond with Lys91.

WDR9(2) = target: T2, WDR9(2) (Homo sapiens, UniProt Q9NSI6); assay: biochemical; parameters: thermal shift assay (real-time PCR machine), melting temperature shift of recombinant bromodomains at 2 uM protein
T2 construct: gene BRWD1; bromodomain 2
Description: as §1

BRPF1A = target: T3, BRPF1A (Homo sapiens, UniProt P55201); assay: biochemical; parameters: thermal shift assay (real-time PCR machine), melting temperature shift of recombinant bromodomains at 2 uM protein
T3 construct: gene BRPF1; isoform A bromodomain
Description: as §1

BRD4(2) = target: T4, BRD4(2) (Homo sapiens, UniProt O60885); assay: biochemical; parameters: thermal shift assay (real-time PCR machine), melting temperature shift of recombinant bromodomains at 2 uM protein
T4 construct: bromodomain 2
Description: as §1

PB1(4) = target: T5, PB1(4) (Homo sapiens, UniProt Q86U86); assay: biochemical; parameters: thermal shift assay (real-time PCR machine), melting temperature shift of recombinant bromodomains at 2 uM protein
T5 construct: gene PBRM1; bromodomain 4
T5 sequence (Q86U86 whole entry): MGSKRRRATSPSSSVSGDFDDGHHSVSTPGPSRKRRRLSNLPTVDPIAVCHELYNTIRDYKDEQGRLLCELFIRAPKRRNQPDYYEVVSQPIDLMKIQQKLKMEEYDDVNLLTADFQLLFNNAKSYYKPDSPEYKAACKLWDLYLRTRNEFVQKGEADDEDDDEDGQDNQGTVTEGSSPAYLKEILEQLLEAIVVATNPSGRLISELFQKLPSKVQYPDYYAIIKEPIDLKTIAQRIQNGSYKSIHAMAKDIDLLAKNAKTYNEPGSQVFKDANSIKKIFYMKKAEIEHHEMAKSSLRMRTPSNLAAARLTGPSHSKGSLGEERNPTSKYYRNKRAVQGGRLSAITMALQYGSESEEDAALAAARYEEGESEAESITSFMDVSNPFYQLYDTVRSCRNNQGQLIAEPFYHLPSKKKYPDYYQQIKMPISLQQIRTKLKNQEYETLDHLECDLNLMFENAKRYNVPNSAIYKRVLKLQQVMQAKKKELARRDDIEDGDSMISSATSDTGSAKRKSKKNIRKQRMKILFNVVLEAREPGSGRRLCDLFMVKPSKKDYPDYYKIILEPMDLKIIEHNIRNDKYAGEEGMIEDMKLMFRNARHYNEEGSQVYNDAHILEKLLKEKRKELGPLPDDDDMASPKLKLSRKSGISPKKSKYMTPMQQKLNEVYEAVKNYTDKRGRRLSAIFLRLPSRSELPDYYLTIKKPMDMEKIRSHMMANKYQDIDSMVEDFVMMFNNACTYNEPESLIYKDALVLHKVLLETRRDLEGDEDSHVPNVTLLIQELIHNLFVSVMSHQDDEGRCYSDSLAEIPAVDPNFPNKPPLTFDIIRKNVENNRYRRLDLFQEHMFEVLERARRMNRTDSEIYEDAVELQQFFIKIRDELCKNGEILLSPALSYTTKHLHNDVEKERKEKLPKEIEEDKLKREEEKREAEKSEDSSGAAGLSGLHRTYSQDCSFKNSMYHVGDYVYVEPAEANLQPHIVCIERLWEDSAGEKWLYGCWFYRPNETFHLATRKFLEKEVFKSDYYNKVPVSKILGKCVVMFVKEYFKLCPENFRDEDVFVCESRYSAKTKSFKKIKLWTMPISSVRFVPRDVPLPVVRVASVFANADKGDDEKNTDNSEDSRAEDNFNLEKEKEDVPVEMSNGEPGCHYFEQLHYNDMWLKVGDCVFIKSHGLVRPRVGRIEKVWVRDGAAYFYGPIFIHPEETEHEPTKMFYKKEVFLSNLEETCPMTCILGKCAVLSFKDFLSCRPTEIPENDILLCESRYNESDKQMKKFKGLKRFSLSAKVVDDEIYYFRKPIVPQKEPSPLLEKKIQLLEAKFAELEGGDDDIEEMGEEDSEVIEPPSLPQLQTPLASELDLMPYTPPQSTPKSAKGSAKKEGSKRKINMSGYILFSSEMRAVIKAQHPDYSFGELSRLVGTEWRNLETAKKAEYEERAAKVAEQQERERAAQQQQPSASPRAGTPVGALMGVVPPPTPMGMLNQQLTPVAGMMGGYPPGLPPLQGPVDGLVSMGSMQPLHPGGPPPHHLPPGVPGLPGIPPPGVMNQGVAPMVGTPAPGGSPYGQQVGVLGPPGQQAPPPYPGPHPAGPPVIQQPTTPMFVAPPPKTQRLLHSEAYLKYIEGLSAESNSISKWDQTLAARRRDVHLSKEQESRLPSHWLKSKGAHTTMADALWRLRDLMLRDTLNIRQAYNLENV
Description: as §1

ASH1L = target: T6, ASH1L (Homo sapiens, UniProt Q9NR48); assay: biochemical; parameters: thermal shift assay (real-time PCR machine), melting temperature shift of recombinant bromodomains at 2 uM protein
T6 construct: bromodomain
Description: as §1

PB1(5) = target: T7, PB1(5) (Homo sapiens, UniProt Q86U86); assay: biochemical; parameters: thermal shift assay (real-time PCR machine), melting temperature shift of recombinant bromodomains at 2 uM protein
T7 construct: gene PBRM1; bromodomain 5
Description: as §1

CECR2 = target: T8, CECR2 (Homo sapiens, UniProt Q9BXF3); assay: biochemical; parameters: thermal shift assay (real-time PCR machine), melting temperature shift of recombinant bromodomains at 2 uM protein
T8 construct: bromodomain
Description: as §1

GCN5L2 = target: T9, GCN5L2 (Homo sapiens, UniProt Q92830); assay: biochemical; parameters: thermal shift assay (real-time PCR machine), melting temperature shift of recombinant bromodomains at 2 uM protein
T9 construct: gene KAT2A; bromodomain
Description: as §1

BRD7 = target: T10, BRD7 (Homo sapiens, UniProt Q9NPI1); assay: biochemical; parameters: thermal shift assay (real-time PCR machine), melting temperature shift of recombinant bromodomains at 2 uM protein
T10 construct: bromodomain
T10 sequence (Q9NPI1 whole entry): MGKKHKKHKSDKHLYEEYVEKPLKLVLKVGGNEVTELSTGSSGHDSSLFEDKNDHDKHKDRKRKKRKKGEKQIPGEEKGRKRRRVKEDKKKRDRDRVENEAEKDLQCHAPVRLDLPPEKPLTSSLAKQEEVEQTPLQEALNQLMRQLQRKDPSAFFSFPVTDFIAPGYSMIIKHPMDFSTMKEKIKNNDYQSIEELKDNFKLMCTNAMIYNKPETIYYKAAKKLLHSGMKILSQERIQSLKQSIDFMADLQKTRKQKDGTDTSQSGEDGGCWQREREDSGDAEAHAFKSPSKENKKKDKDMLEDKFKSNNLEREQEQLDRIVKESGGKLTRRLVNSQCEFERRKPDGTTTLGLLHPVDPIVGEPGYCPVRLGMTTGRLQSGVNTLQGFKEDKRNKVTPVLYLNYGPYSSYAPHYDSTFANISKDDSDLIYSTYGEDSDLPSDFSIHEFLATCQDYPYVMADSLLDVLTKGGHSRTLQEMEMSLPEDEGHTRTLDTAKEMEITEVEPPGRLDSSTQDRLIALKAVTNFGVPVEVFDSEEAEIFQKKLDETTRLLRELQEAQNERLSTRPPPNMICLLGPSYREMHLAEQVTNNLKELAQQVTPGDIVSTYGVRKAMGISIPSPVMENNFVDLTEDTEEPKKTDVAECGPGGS
Description: as §1

TIF1-phd-bromo = target: T11, TIF1-phd-bromo (Homo sapiens, UniProt O15164); assay: biochemical; parameters: thermal shift assay (real-time PCR machine), melting temperature shift of recombinant bromodomains at 2 uM protein
T11 construct: gene TRIM24; PHD-bromodomain
Description: as §1

PB1(3) = target: T12, PB1(3) (Homo sapiens, UniProt Q86U86); assay: biochemical; parameters: thermal shift assay (real-time PCR machine), melting temperature shift of recombinant bromodomains at 2 uM protein
T12 construct: gene PBRM1; bromodomain 3
T12 sequence (Q86U86 whole entry): as the sequence (Q86U86 whole entry) above
Description: as §1

PCAF = target: T13, PCAF (Homo sapiens, UniProt Q92831); assay: biochemical; parameters: thermal shift assay (real-time PCR machine), melting temperature shift of recombinant bromodomains at 2 uM protein
T13 construct: gene KAT2B; bromodomain
T13 sequence (Q92831 whole entry): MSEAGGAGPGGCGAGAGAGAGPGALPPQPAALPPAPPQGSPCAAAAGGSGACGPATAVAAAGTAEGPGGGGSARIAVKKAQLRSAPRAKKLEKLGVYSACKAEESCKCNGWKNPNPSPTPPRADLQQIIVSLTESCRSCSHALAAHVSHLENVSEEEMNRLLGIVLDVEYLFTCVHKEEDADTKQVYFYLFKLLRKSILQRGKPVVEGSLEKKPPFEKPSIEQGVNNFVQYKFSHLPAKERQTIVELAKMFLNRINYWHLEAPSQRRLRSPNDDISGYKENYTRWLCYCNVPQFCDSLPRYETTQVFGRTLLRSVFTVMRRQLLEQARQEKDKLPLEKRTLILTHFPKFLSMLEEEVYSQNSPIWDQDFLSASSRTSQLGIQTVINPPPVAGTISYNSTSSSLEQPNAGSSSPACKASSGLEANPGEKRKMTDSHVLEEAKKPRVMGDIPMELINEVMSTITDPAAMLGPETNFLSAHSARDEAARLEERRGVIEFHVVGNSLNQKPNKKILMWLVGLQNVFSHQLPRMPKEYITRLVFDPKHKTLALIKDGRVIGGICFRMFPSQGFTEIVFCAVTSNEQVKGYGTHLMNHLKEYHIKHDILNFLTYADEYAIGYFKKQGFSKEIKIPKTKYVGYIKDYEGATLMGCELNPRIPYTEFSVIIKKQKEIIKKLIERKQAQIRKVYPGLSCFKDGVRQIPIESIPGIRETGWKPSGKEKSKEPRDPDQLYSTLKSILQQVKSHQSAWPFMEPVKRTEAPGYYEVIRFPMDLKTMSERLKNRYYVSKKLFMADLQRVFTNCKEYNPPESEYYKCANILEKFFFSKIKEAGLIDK
Description: as §1

[1] = target: T14, BRD4(1), first bromodomain of BRD4 (Homo sapiens, UniProt O60885); assay: ITC; co-crystal structure at […] Å; assay type: binding
T14 construct: first bromodomain; BRD4_HUMAN O60884-1 fragment 44-168 (crystallography)

[2] = target: T14, BRD4(1), first bromodomain of BRD4; assay: biochemical; parameters: thermal shift assay, SAR of isoxazole compounds against BRD4(1); details: read-out: ΔTm Shift (oC)
Description: The recombinant bromodomains at 2 μM were mixed with 10 μM inhibitors. The assays and data evaluation for melting temperatures were performed using a Real-Time PCR Mx3005p machine (Stratagene) and the protocols previously described. Experiments profiling the final compound (PNZ5) were performed in quadruplicates. Isoxazoles have been explored previously as BET bromodomain inhibitors. We have developed PNZ5, a new isoxazole-based inhibitor originating from the lead compound S1 (Figure 1). PNZ5 was developed as the result of a structure-based lead optimisation program. Dihydroindene S1 was identified as a ligand against BRD4(1) (pIC50 5.9). Investigation of the co-crystal structure of S1 with BRD4(1) [PDB ID 4GPJ] identified a number of positions for potential optimisation: addition of a carbonyl group at C-3 was envisaged to benefit from hydrogen-bonds (H-bonds) to a network of conserved water molecules; replacement of C-2 with a nitrogen would minimise interactions in the narrow ZA channel of BRD4(1) and N-substitution could provide further binding interactions with the protein; and alternative substitution of the hydroxyl at C-1 would provide a handle for further optimisation. […] The three best compounds, S3, S5 and S7, were destined to be separated into their component enantiomers for further evaluation (Supplementary Table 2). […]

ΔTm at 10 µM (BRDT(1)): 6.19 °C
ΔTm at 10 µM (WDR9(2)): 0.38 °C
ΔTm at 10 µM (BRPF1A): 0.81 °C
ΔTm at 10 µM (BRD4(2)): 7.04 °C
ΔTm at 10 µM (PB1(4)): 0.36 °C
ΔTm at 10 µM (ASH1L): 0.41 °C
ΔTm at 10 µM (PB1(5)): 0.28 °C
ΔTm at 10 µM (CECR2): 0.19 °C
ΔTm at 10 µM (GCN5L2): 0.25 °C
ΔTm at 10 µM (BRD7): 0.37 °C
ΔTm at 10 µM (TIF1-phd-bromo): 0.06 °C
ΔTm at 10 µM (PB1(3)): 0.12 °C
ΔTm at 10 µM (PCAF): 0.45 °C
Kd [1]: 5.43 nM
ΔTm at 10 µM [2]: 11.4 °C
SMILES: Cc1noc(C)c1-c1ccc2c(c1)[C@H](c1ccccc1)N(C)C2=O [PNZ5]
